In general, Papp refers to the rate of passage across a membrane or cell layer, normalised by area and donor concentration.

This note sets out measurements from patent publication US9809537B2, “Glycosidase inhibitors and uses thereof” (Alectos Therapeutics Inc., priority 2012, dated 2017).

This data set can be described thus: Apparent permeability (Papp), bi-directional transport. The following applies: pig, LLC-PK1, t=3 h, average of A to B and B to A, read-out: Papp LLC-PK1 cells. It counts as in vitro ADME. The procedure:
Assay for Determination of Apparent Permeability (Papp)
Bi-directional transport is evaluated in LLC-PK1 cells in order to determine apparent permeability (Papp). LLC-PK1 cells can form a tight monolayer and therefore can be used to assess vectorial transport of compounds from basolateral to apical (B→A) and from apical to basolateral (A→B).
To determine Papp, LLC-PK1 cells are cultured in 96-well transwell culture plates (Millipore). Solutions containing the test compounds (1 μM) are prepared in Hank's Balanced Salt Solution with 10 mM HEPES. Substrate solution (150 μL) is added to either the apical (A) or the basolateral (B) compartment of the culture plate, and buffer (150 μL) is added to the compartment opposite to that containing the compound. At t=3 h, 50 μL samples are removed from both sides of monolayers dosed with test compound and placed in 96 well plates, scintillant (200 μL) or internal standard (100 μL labetolol 1 μM) is added to the samples and concentration is determined by liquid scintillation counting in a MicroBeta Wallac Trilux scintillation counter (Perkin Elmer Life Sciences, Boston, Mass.) or by LCMS/MS (Applied Biosystems SCIEX API 5000 triple quadruple mass spectrometer). [^3H]Verapamil (1 μM) is used as the positive control. The experiment is performed in triplicate.
The apparent permeability, Papp, is calculated by the following formula for samples taken at t=3 h:
[formula] Where: Volume of Receptor Chamber is 0.15 mL; Area of membrane is 0.11 cm^2; the Initial Concentration is the sum of the concentration measured in the donor plus concentration measured in receiver compartments at t=3 h; A in Concentration is concentration in the receiver compartment at 3 h; and A in Time is the incubation time (3×60×60=10800 s). Papp is expressed as 10^−6 cm/s. The Papp (LLC-PK1 cells) are the average of the Papp for transport from A to B and Papp for transport from B to A at t=3 h: […]

As to `CC(=O)NC[C@@H]1[C@@H](O)[C@H](O)[C@@H](CO)N1CCCc1ccc(-c2ccccc2)cc1` [Example 3, N-(((2R,3R,4R,5R)-1-(3-([1,1′-biphenyl]-4-yl)propyl)-3,4-dihydroxy-5-(hydroxymethyl)pyrrolidin-2-yl)methyl)acetamide], the apparent permeability coefficient (Papp) at 3 h, 1 μM stood at 5 ×10⁻⁶ cm/s.
